# Laboratory results: ChEMBL document CHEMBL3137667, “[Drug-induced liver injury; fourteenth updated edition of the bibliographic database of liver injuries and related drugs]” (Gastroenterol Clin Biol, 2004)
# Columns and labels:
# [1] = Highest frequency of acute liver toxicity observed during clinical trials, expressed as a percentage. [column '% AIGUE' in source]; settings: human
# [2] = human
# [3] = human, serum, 4383 h
# [4] = human; remark: listed apart in the source
# [5] = human, serum
# [6] = human; remark: listed apart in the source
# [7] = human; remark: listed apart in the source
# [8] = human; remark: listed apart in the source
# [9] = human; remark: listed apart in the source
# [10] = human; remark: listed apart in the source
# [11] = Highest frequency of moderate liver toxicity observed during clinical trials, expressed as a percentage. [column '% BIOL' in source]; settings: human
# [12] = human, serum; remark: listed apart in the source
# [13] = human; remark: listed apart in the source
# [14] = human; remark: listed apart in the source
# [15] = Times to onset, minimal and maximal, observed in the indexed observations. [column 'DELAI' in source]; settings: human
# 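Throughout, for Hepatotoxicity (association with vascular disease): count of indexed literature references reporting vascular liver injury in humans, e.g. peliosis hepatitis, hepatic veno-occlusive disease or Budd-Chiari syndrome.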
# 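Throughout, for Hepatotoxicity (benign tumour): value is a count of indexed literature references citing a benign tumour confirmed by histopathology.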
# 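Throughout, for Hepatotoxicity (choleostasis): human cholestatic liver injury, shown by histopathology or by peak ALT or AST elevation over alkaline phosphatase ratio below 2, value counts indexed literature reports.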
# 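Throughout, for Hepatotoxicity (chronic liver disease): chronic liver injury confirmed by histopathology or persistently raised serum aminotransferase activity beyond 6 months, value given as the count of indexed literature references.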
# 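Throughout, for Hepatotoxicity (cirrhosis): value is a count of indexed literature references reporting cirrhosis confirmed by histopathology.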
# 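Throughout, for Hepatotoxicity (cytolytic): human cytolytic liver injury, shown by histopathology or by a ratio above 5 of peak ALT or AST elevation to alkaline phosphatase elevation, value counts indexed references.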
# 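Throughout, for Hepatotoxicity (granulomatous hepatitis): value is a count of indexed literature references reporting granulomatous liver disease confirmed by histopathology.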
# 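Throughout, for Hepatotoxicity (malignant tumour): malignant tumour confirmed by histopathology, value gives the count of indexed literature references reporting it.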
# 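Throughout, for Hepatotoxicity (severe hepatitis): human clinical data: severe hepatitis, meaning potentially life-threatening liver failure or clinically observed cases, the value counts how many indexed literature references report it.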
# 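Throughout, for Hepatotoxicity (steatosis): steatosis confirmed by histopathology, value is the count of indexed references.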
Structure (SMILES),Hepatotoxicity (acute) [1],Hepatotoxicity (association with vascular disease) [2],Hepatotoxicity (chronic liver disease) [3],Hepatotoxicity (cytolytic) [4],Hepatotoxicity (acute) [5],Hepatotoxicity (severe hepatitis) [6],Hepatotoxicity (choleostasis) [7],Hepatotoxicity (malignant tumour) [8],Hepatotoxicity (granulomatous hepatitis) [9],Hepatotoxicity (steatosis) [10],Hepatotoxicity (moderate) [11],Hepatotoxicity (moderate) [12],Hepatotoxicity (cirrhosis) [13],Hepatotoxicity (benign tumour) [14],Hepatotoxicity (time to onset) [15]
CCCCC(=O)N(Cc1ccc(-c2ccccc2-c2nnn[nH]2)cc1)[C@H](C(=O)O)C(C)C,0%,0,0,1,3,1,1,0,0,0,0%,2,0,0,1 month - 4.5 months
CCN(CC)C(=O)C1(c2ccccc2)CC1CN (stereo not given),0%,0,0,1,1,0,0,0,0,0,0%,0,0,0,6 months
CC(=O)[C@H]1CC[C@H]2[C@@H]3CC[C@H]4C[C@H](O)CC[C@]4(C)[C@H]3C(=O)C[C@]12C.C[C@]12CC[C@@H](O)C[C@@H]1CC[C@H]1[C@@H]3CC[C@H](C(=O)CO)[C@@]3(C)CC(=O)[C@@H]12,0%,0,0,0,0,0,0,0,0,0,15%,1,0,0,3 days - 5 days
CCCCN/C(=C1/C=C(Cl)C=CC1=O)c1ccccc1Cl,0%,0,0,0,1,0,0,0,0,0,54.5%,1,0,0,1 month
CC1(C)S[C@@H]2[C@H](NC(=O)[C@H](C(=O)O)c3ccsc3)C(=O)N2[C@H]1C(=O)O.O=C(O)[C@H]1/C(=C/CO)O[C@@H]2CC(=O)N21,0%,0,0,0,2,1,2,0,0,0,33%,54,0,0,1 day - 6 weeks
C=CC1=C(C(=O)O)N2C(=O)[C@@H](NC(=O)/C(=N\O)c3csc(N)n3)[C@H]2SC1,0%,0,0,0,1,0,0,0,1,0,28.6%,43,0,0,2 days
CC(C)=CCN1CC[C@]2(C)c3cc(O)ccc3C[C@H]1[C@H]2C [(+)-PENTAZOCINE],0%,0,0,0,2,0,0,0,0,0,0%,0,0,0,< 3 months
COc1ccc2c(c1)c(CC(=O)OCC(=O)O)c(C)n2C(=O)c1ccc(Cl)cc1 [ACEMETACIN],0%,0,0,0,1,0,1,0,0,0,0%,0,0,0,12 weeks
CC(=O)Nc1nnc(S(N)(=O)=O)s1 [ACETAZOLAMIDE],0%,0,0,0,1,1,1,0,0,1,0%,0,0,0,1 month
C[S+](CC[C@H](N)C(=O)[O-])C[C@H]1O[C@@H](n2cnc3c(N)ncnc32)[C@H](O)[C@@H]1O (stereo not given in full) [ADEMETIONINE],0%,0,0,1,1,0,0,0,0,0,5%,2,0,0,3 days
COc1cc2nc(N(C)CCCNC(=O)C3CCCO3)nc(N)c2cc1OC (stereo not given) [ALFUZOSIN],0%,0,0,1,1,0,0,0,0,0,0%,0,0,0,9 months
C=CCNc1nc(NCC=C)nc(N2CCN(C(c3ccc(F)cc3)c3ccc(F)cc3)CC2)n1 [ALMITRINE],0%,0,0,1,1,0,0,0,0,0,0%,0,0,0,1 week
Cc1cn([C@H]2C[C@H](F)[C@@H](CO)O2)c(=O)[nH]c1=O [ALOVUDINE],3.3%,0,0,0,1,1,0,0,0,0,0%,0,0,0,< 3 months
N=C(N)NC(=O)c1nc(Cl)c(N)nc1N [AMILORIDE],0%,0,0,0,0,0,0,0,0,0,1.1%,2,0,0,2 weeks - 6 months
